Reference: US20260137711A1, “COMBINATION THERAPY FOR CANCER” (NATIONAL UNIVERSITY OF IRELAND, GALWAY, priority 2022, published 2026)

Experiments:
Assay type in all cases: cell-based, human
MCF10A cells [1] = experiment: Long-term cell proliferation assay, crystal violet staining; details: 31 nM BI-1347 alone, 7 days, compared to controls
Experimental: (a and b) MCF10A cells were plated at equal low density and then either mock treated or treated with 31 nM BI-1347, in the presence or absence of XL413 at a doses of (a) 1.25 μM or (b) 10 μM over a 7 day period. Representative images of crystal violet-stained cells are shown alongside quantitation of crystal violet intensity normalised to the untreated control.
Briefly, MCF10A cells were mock-treated or treated in the continued presence of a dual-specificity CDK8/CDK19 inhibitor, BI-1347, in the presence or absence of XL413 at two different concentrations (1.25 μM and 10 μM) for a 7-day period. Relative cell proliferation was estimated by staining cells with crystal violet and measuring staining intensities. […] Importantly the addition of BI-1347 to XL413 caused a further reduction in cell number with staining intensity decreasing by 70% and 95% respectively.
MCF10A cells were seeded at 4,000 cells per well of a 6 well plate and after 24 hours were treated with inhibitors before being incubated for 7 days at 37° C. with 5% CO2. Media was removed from the cells which were then washed with PBS and air dried before being fixed with 100% methanol for 1 hour. Following removal of methanol the plates were air-dried, stained with crystal violet staining solution (0.2% crystal violet, 25% methanol) for 1 hour at room temperature, washed with ddH2O and air-dried. Plates were scanned using a HP Scanjet 4050, to generate images of crystal violet stained cells, and crystal violet staining intensity was acquired using the Odyssey infrared imaging system and Image Studio software (LI-COR Biosciences).

MCF10A cells [2] = experiment: Flow cytometry of cell cycle distribution and DNA synthesis (EdU/DAPI)
Experimental: (c) A typical profile obtained by flow cytometry of MCF10A cells labelled with EdU and DAPI that indicates the gating applied in order to determine the percentage of cells with sub-G1 DNA content (sub-G1), G1 cells (G1), replicating early-mid S phase cells (Early-Mid S/EdU+), replicating mid-late S phase cells (Mid-Late S/EdU+), cells with S phase DNA content but not replicating (2n<& <4n/EdU−), and cells either in G2 or mitosis (G2/M).(d-f) MCF10A cells were mock treated or treated with 10 μM XL413, in the presence or absence of increasing concentrations of the CDK8 inhibitor BI-1347, for 24 hours. (d) Cells were labelled with EdU for last 30 minutes and DNA synthesis, DNA content and cell cycle distribution were assessed by flow cytometry and analysed using the gating strategy described in above (FIG. 2c). (e) Distribution of cells in the cell cycle. (f) Fluorescence intensity, proportional to EdU incorporation, in individual S phase cells. Long and short horizontal black lines indicate the median and the interquartile range, respectively, extending from the 25th to the 75th percentile for ˜3,810 cells for each condition. Data is from a single experiment.
FIG. 3: CDK8 activity is required for efficient DNA synthesis under conditions of limited CDC7 kinase activity (a-c) MCF10A cells were mock treated or treated with 31 nM BI-1347, in the presence or absence of increasing concentrations of the CDC7 inhibitors, XL413 (a-c) and TAK-931 (d-f), for 24 hours. (a and d) Cells were labelled with EdU for last 30 minutes and DNA synthesis, DNA content and cell cycle distribution were assessed by flow cytometry and analysed using the gating strategy described in FIG. 2c.c (b and e) distribution of cells in the cell cycle. (c and f) Fluorescence intensity, proportional to EdU incorporation, in individual S phase cells. Long and short horizontal black lines indicate the median and the interquartile range, respectively, extending from the 25th to the 75th percentile for ˜4,190 cells for each condition. Data is from a single experiment.
To analyse the cell cycle and DNA synthesis, nascent DNA was labelled by incubating cells with 10 μM EdU for either 20 or 30 minutes prior to harvest, washing with PBS, and then by resuspension in PBS containing 70% EtOH for 1 hour at −20° C. After a PBS wash, incorporated EdU was labelled by incubating cells in click reaction buffer (PBS containing 10 μM 6-Carboxyfluorescine-TEG-azide, 10 mM Sodium-L-ascorbate, 2 mM Copper-II-Sulphate) for 30 minutes protected from light. Cells were washed in PBS containing 1% BSA, 5% Tween 20 and then DNA stained in PBS containing 1% BSA and 1 μg/ml DAPI. All washes involve: centrifugation at 400×g for 5 minutes, removal of supernatant from pellet, resuspension in the appropriate buffer, recentrifugation and removal of supernatant from the pellet prior to the next step.
Fluorescence intensity data for 6-Carboxyfluorescine (488_530_30 nm) and DAPI (405_450_50 nm) were acquired for 10,000 single cells on a BD FACS Canto II and analysed using FlowJo software. To further analyse fluorescence intensity, proportional to EdU incorporation, for individual cells, gates were applied on DAPI-EdU biparametric dot plots to select for EdU positive S phase cells using FlowJo. According to the required analysis these gates included either all S phase cells, or only early or late S phase cells. Fluorescence intensity (488_530_30) values per cell were exported and plotted as scatter dot plots using GraphPad prism. For comparisons of mean fluorescence intensity of a cell population across three biological repeat experiments, all fluorescence intensity values were normalised to the maximum fluorescence intensity of the untreated control sample of each respective experiment to account for absolute differences in EdU staining. […]

MDA-MB-231 = experiment: as above; details: 31 nM BI-1347 with 1.25 μM XL413, 24 hours
Experimental: (§1) Supplemental FIG. 3: Characteristic phenotypes associated with inhibition of CDC7 and CDK8 are observed in multiple cell lines A panel of different cell lines, including: MDA-MB-468 (a-c); MDA-MB-231 (d-f); and U-2 OS (g-i), were mock treated or treated with 1.25 μM XL413 and/or 31 nM BI-1347BI-1347 for 24 hours. Cells were labelled with EdU for last 30 minutes and DNA synthesis, DNA content and cell cycle distribution were assessed by flow cytometry and analysed using the gating strategy described in FIG. 2c. (b, e and h) distribution of cells in the cell cycle. (c, f and i) Fluorescence intensity, proportional to EdU incorporation, in individual S phase cells. Long and short horizontal black lines indicate the median and the interquartile range, respectively, extending from the 25th to the 75th percentile for ˜3,922 (MDA-MB-468), ˜3,291 (MDA-MB-231), and ˜4,628 (U-2 OS) cells for each condition. Data is from a representative experiment from 3 biological repeats. […]
(§2) Fluorescence intensity data for 6-Carboxyfluorescine (488_530_30 nm) and DAPI (405_450_50 nm) were acquired for 10,000 single cells on a BD FACS Canto II and analysed using FlowJo software. To further analyse fluorescence intensity, proportional to EdU incorporation, for individual cells, gates were applied on DAPI-EdU biparametric dot plots to select for EdU positive S phase cells using FlowJo. […] Fluorescence intensity (488_530_30) values per cell were exported and plotted as scatter dot plots using GraphPad prism. For comparisons of mean fluorescence intensity of a cell population across three biological repeat experiments, all fluorescence intensity values were normalised to the maximum fluorescence intensity of the untreated control sample of each respective experiment to account for absolute differences in EdU staining. The mean fluorescence intensity values of these cell populations across three biological repeat experiments are expressed as a ratio relative to a control sample and plotted as a scatter dot plot using GraphPad prism.

MDA-MB-468 = experiment: as above; details: 31 nM BI-1347 with 1.25 μM XL413, 24 hours
Experimental: as §1, §2

U-2 OS = experiment: as above; details: 31 nM BI-1347 with 1.25 μM XL413, 24 hours
Experimental: as §1, §2

[3] = BI-1347 alone at increasing concentrations, 24 hours
[4] = CDC7 inhibitor alone at increasing concentrations, absence of CDK8/CDK19i, 24 hours
[5] = CDC7 inhibitor at increasing concentrations together with the CDK8/CDK19 inhibitor (31 nM BI-1347), 24 hours, all doses tested

Structure (SMILES)	decrease in the relative staining intensity (crystal violet) (MCF10A cells [1])	cell cycle distribution (MCF10A cells [2]; [3])	rate of DNA synthesis in S phase cells (MCF10A cells [2]; [3])	increase in the potency of the CDC7 inhibitor in replication assays (MCF10A cells [2]; BI-1347 in combination with CDC7 inhibitors, decrease in rate of DNA synthesis) [fold]	potentiation of cell cycle and DNA replication phenotypes imposed by CDC7 inhibition (MDA-MB-231)	potentiation of cell cycle and DNA replication phenotypes imposed by CDC7 inhibition (MDA-MB-468)	potentiation of cell cycle and DNA replication phenotypes imposed by CDC7 inhibition (U-2 OS)	cell cycle distribution (MCF10A cells [2]; [4])	rate of DNA synthesis of S phase cells (MCF10A cells [2]; [4])	cell cycle distribution (MCF10A cells [2]; [5])	rate of DNA synthesis (MCF10A cells [2]; [5])
CN(C)C(=O)Cn1ccc(-c2ccc(-c3cncc4ccccc34)cc2)c1 [BI-1347]	approximately 30%	dose-dependent increase in G1 phase cells with a corresponding decrease in early-mid S phase cells	subtle and dose-independent decrease	~10	strong potentiation	strong potentiation	strong potentiation				
Cc1n[nH]cc1-c1cc2[nH]c([C@@H]3CC4CCN3CC4)nc(=O)c2s1 [TAK-931]								dose-dependent accumulation of mid-late S phase cells	corresponding decrease	more pronounced accumulation of cells in mid-late S phase	much more profound decrease
